Tests used:
C57Bl/6J mice = assay: In vivo liver uptake of [3H]-labelled mouse HDL and LDL; settings: intravenous 10 nmole/kg
Protocol: FIG. 16A-J: Increase of bile secretion following activation of P2Y13r pathway in mice. C57Bl/6J mice (n=10) were fasted for 2 h and then intravenously injected with Cangrelor® or Compound IIa (10 nmoles/kg). Four hours later the gallbladders were removed and analyzed for: Bile acids content (FIG. 16A); Bile cholesterol content (FIG. 16B). C57Bl/6J mice (n=10) were fasted for 2 h followed by single oral dose of P2Y13r agonist Compound IIa at 3, 30 or 300 μg/kg. Six hours later bile acids contents (FIG. 16C); bile cholesterol content (FIG. 16D), and bile acid content of liver (FIG. 16E) were evaluated using HPLC and enzymatic kits for gallbladers. Plasma samples were collected at time 0 and after 6 h of treatment, then analyzed for: total cholesterol (▴), unesterified cholesterol (●), esterified cholesterol (▪) and HDL cholesterol (▾) determined using either enzymatic kits or Lipoprint® for HDL cholesterol (FIG. 16F). […] Radioactivity present in the liver was determined 2 hours later for the HDL or 5 hours later for the LDL. Cholesterol content of feces from treated animals (100 μg/kg) was determined by Charge aerosol detection (FIG. 16J). *p<0.05, **p<0.01. […]

mice = assay: Bile acids physiology after one week daily oral treatment; assay type: in vivo; settings: oral gavage once daily for a week (0.03 mg/kg)
Protocol: FIG. 13A-B: Single-dose effect of Compound IIa on bile acids secretion after one week treatment. Mice were treated daily with Compound IIa (0.03 mg/kg) by oral gavage. On the day of sacrifice, the mice were fasted for 3 hours followed by an oral gavage (same concentration). 4 hours later the bile content was analyzed. FIG. 13A: data are expressed as the concentration of bile acids. FIG. 13B: data are expressed as the pool of bile acids per mouse weight (*p<0.05). Group of animals n=10.
In the previous experiments, illustrative compounds of the invention were administrated once and the impact on bile physiology was measured after 6 hours. Compound IIa was administrated by oral gavage once daily for a week to allow observation of the consequences on bile physiology of a longer treatment. On the day of sacrifice, the conditions were similar to the dose response experiments. The net impact of Compound IIa on the bile secretion was observed.

Q: For `CN(C)c1ncc(CN2CCC(c3cc(O)nc(N4CCOCC4)n3)CC2)cn1` [Compound IIa, 6-[1-(2-Dimethylaminopyrimidin-5-ylmethyl)-piperidin-4-yl]-2-morpholin-4-yl-pyrimidin-4-ol], which “liver uptake of labelled HDL as compared to LDL” value (C57Bl/6J mice) is on record?
A: specific stimulation

Q: What about the “volume of the individual bile compared to vehicle treatment” value (mice) of the same compound?
A: significant increase

— patent US10220040B2, “Compounds, compositions and methods useful for cholesterol mobilization” (Cerenis Therapeutics Holding SA, priority 2010, dated 2019)
